This note sets out measurements from publication PMC12490239, “Combining BET inhibition with SMAC mimetics restricts tumor growth and triggers immune surveillance in preclinical cancer models” (Cell Reports Medicine, 2025).

What all share (assay): cells
Design in all cases: CellTiter-Glo 2.0 luminescence proliferation/viability assay, single agents, human tumour cell line panel
(In general: In ATP-based viability assays light output follows the ATP content of the culture.)

For one test, the system named is MKN74. The note with it: Homo sapiens, MKN-74, 96 h; single agent; read-out: IC50 SMACm. In short, it runs like this: (§1)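 Human tumour cell lines were seeded into assay plates and held at 37°C with 5% CO2 for twenty-four hours, then exposed in triplicate to rising concentrations of the SMAC mimetic, from 4.5 nM to 10 μM, with DMSO as control. After 96 h, viability was read as CellTiter-Glo2.0 luminescence to derive single-agent IC50 values.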

The next test deals with Calu-1. The note with it: Homo sapiens, Calu-1, 96 h; single agent; read-out: IC50 SMACm. In short, it runs like this:
as §1

Another test has as its system COLO-205. The note with it: Homo sapiens, COLO 205, 96 h; single agent; read-out: IC50 SMACm. Put shortly:
as §1

For a further test, the system named is AsPC-1. The note with it: Homo sapiens, ASPC1, 96 h; single agent; read-out: IC50 SMACm. Put shortly:
as §1

A further test has as its system SNU1047. To be noted: 96 h; single agent; read-out: IC50 SMACm. Put shortly:
as §1

A further test relates to COLO60H. To be noted: 96 h; single agent; read-out: IC50 SMACm. In short, it runs like this:
as §1

The next test concerns Calu-6. The note with it: Homo sapiens, Calu-6, 96 h; single agent; read-out: IC50 SMACm. In short, it runs like this: as §1
For another test, the system named is PSN1. To be noted: Homo sapiens, PSN1, 96 h; single agent; read-out: IC50 SMACm. In short, it runs like this:
as §1

The test system of a further test is SW900. The note with it: Homo sapiens, SW900, 96 h; single agent; read-out: IC50 SMACm. Put shortly:
as §1

The subject of the next test is NCI-H2228. The note with it: Homo sapiens, NCI-H2228, 96 h; single agent; read-out: IC50 SMACm. In short, it runs like this:
as §1

The next test has as its system KLM-1. The note with it: KLM1, 96 h; single agent; read-out: IC50 SMACm. Put shortly:
as §1

The next test relates to SNUC2B. To be noted: Homo sapiens, SNU-C2B, 96 h; single agent; read-out: IC50 SMACm. In short, it runs like this: as §1
For another test, the system named is C84. The note with it: 96 h; single agent; read-out: IC50 SMACm. In short, it runs like this: as §1
Another test concerns NCI-H747. To be noted: Homo sapiens, NCI-H747, 96 h; single agent; read-out: IC50 SMACm. In short, it runs like this:
as §1

A word on the IC50: it is the concentration that inhibits the measured activity by half. As to `CN[C@@H](C)C(=O)Nc1ccc(-c2c(-c3cccnc3OC)nc3cc(C)ccn23)c(C#Cc2ccc3c(C)nccc3c2)n1` [SMACm, BI 891065], the IC50 with MKN74 is 4.57 µM; with Calu-1 it was 8.41 µM; in the test on COLO-205 it was 4.99 µM; in the test with AsPC-1, more than 10 µM; with SNU1047 it was 2.79 µM; with COLO60H, 4.37 µM. For the same compound, the IC50 is 4.93 µM in the test with Calu-6; 7.21 µM in the test on PSN1; 1.78 µM in the test with SW900; 4.44 µM in the test on NCI-H2228; 3.93 µM in the test on KLM-1; 0.137 µM in the test on SNUC2B. The IC50 in the test on C84 amounted to 3.35 µM; in the test with NCI-H747, 5.06 µM.
